Where two headings read alike, the source gives them in different places.
Biological target: T1, Recombinant human Src (Homo sapiens, UniProt P12931)
T1 construct: made in house; host or cells: baculovirus-insect cell system
Assay: Src tyrosine kinase activity, poly E4Y and 32P-ATP
Assay type: biochemical
Method: Recombinant human Src was expressed using the baculovirus-insect cell system and purified as published (Budde et al., 1993 and 2000). Recombinant Csk and the FGF receptor (FGFr) were expressed as glutathione-S-transferase fusion proteins using the pGEX expression vector and E. coli, and purified as described (Sun & Budde, 1995).
The tyrosine kinase activity of Src, Csk and FGFr was determined using poly E4Y and ^32P-ATP. Briefly, enzymes were assayed in a reaction mixture consisting of 0.15 M EPPS-NaOH (pH 8.0) with 6 mM MgCl2, 0.2 mM γ^32P-ATP (0.2-0.4 mCi/μmol), 10% glycerol, 0.1% Triton X-100, and poly E4Y. Poly E4Y is a synthetic peptide whose phosphorylation is measured in this assay by the addition of the radioactively labeled phosphate from the ATP (Budde et al., 1995). […] When ATP was varied (0, 50, 100 and 250 μM), poly E4Y was kept constant at 150 μg/ml.

[1] = Table 2, read-out: Src IC50 (especially good inhibitors of Src)
[2] = read-out: IC50 (preferred compounds for treatment of Src family-related disease)

T1 sequence (P12931 whole entry): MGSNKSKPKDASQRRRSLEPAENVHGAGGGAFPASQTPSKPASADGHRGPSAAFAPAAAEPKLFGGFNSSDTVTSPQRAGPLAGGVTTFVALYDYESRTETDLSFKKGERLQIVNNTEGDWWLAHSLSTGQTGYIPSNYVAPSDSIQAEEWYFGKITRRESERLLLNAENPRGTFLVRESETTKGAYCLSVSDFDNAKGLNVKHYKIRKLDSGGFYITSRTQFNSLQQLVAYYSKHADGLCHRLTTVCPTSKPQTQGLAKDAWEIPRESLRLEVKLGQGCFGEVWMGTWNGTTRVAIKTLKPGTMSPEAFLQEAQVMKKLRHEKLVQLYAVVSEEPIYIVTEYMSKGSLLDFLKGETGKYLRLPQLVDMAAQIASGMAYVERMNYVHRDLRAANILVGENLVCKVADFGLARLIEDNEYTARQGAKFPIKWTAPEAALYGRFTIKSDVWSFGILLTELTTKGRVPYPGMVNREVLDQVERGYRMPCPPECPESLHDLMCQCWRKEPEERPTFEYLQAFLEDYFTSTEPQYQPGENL

Structure (SMILES)	IC50 [1]	IC50 [2]
COc1ccc(-c2cc3ncnc(NN=Cc4ccc(C(=O)O)cc4)c3s2)cc1 [Compound 406, 4-Carboxybenzaldehyde(6-(4-methoxyphenyl)thieno[3,2-d]pyrimidin-4-yl)hydrazone]	≤ 2000 nM	< 2000 nM
Cc1c(C(=O)O)sc2c(NN=Cc3cccs3)ncnc12 [Compound 467, 2-Thiophenecarboxaldehyde(6-carboxy-7-methylthieno[3,2-d]pyrimidin-4-yl)hydrazone]	–	< 2000 nM
COc1ccc(C=NNc2ncnc3c(C)c(C(O)c4ccccc4)sc23)cc1O (stereo not shown) [Compound 460, 3-Hydroxy-4-methoxybenzaldehyde(6-(1-hydroxy-1-phenyl)methyl-7-methylthieno[3,2-d]pyrimidin-4-yl)hydrazone]	≤ 2000 nM	< 2000 nM
Cc1c(C(Cc2ccccc2)c2ccccc2)sc2c(NN=Cc3cccs3)ncnc12 (stereo not shown) [Compound 474, 2-Thiophenecarboxaldehyde(6-(1-benzyl-1-phenyl)methyl-7-methylthieno[3,2-d]pyrimidin-4-yl)hydrazone]	≤ 2000 nM	< 2000 nM
Cc1c(C(O)C2CCCCC2)sc2c(NN=Cc3ccc(C(=O)O)cc3)ncnc12 (stereo not shown) [Compound 470, 4-Carboxybenzaldehyde(6-(1-cyclohexyl-1-hydroxy)methyl-7-methylthieno[3,2-d]pyrimidin-4-yl)hydrazone]	≤ 2000 nM	< 2000 nM
COc1ccc(C=NNc2ncnc3c(C)c(C(O)c4cccnc4)sc23)cc1O (stereo not shown) [Compound 486, 3-Hydroxy-4-methoxybenzaldehyde(6-(1-hydroxy-1-[3-pyridyl])methyl-7-methylthieno[3,2-d]pyrimidin-4-yl)hydrazone]	≤ 2000 nM	< 2000 nM
Cc1c(C(O)c2cccs2)sc2c(NN=Cc3ccc(C(=O)O)cc3)ncnc12 (stereo not shown) [Compound 488, 4-Carboxybenzaldehyde(6-(1-hydroxy-1-[2-thienyl])methyl-7-methylthieno[3,2-d]pyrimidin-4-yl)hydrazone]	≤ 2000 nM	< 2000 nM
COc1ccc(-c2cc3ncnc(NN=Cc4cccnc4)c3s2)cc1 [Compound 405, 3-Pyridinecarboxaldehyde(6-(4-methoxyphenyl)thieno[3,2-d]pyrimidin-4-yl)hydrazone]	≤ 2000 nM	< 2000 nM
Cc1c(C(O)C2CCCCC2)sc2c(NN=Cc3cccs3)ncnc12 (stereo not shown) [Compound 471, 2-Thiophenecarboxaldehyde(6-(1-cyclohexyl-1-hydroxy)methyl-7-methylthieno[3,2-d]pyrimidin-4-yl)hydrazone]	≤ 2000 nM	< 2000 nM
O=C(O)c1ccc(C=NNc2ncnc3c2sc2ncccc23)cc1 [Compound 245, 4-Carboxybenzaldehyde(pyrido[3′,2′:4,5]thieno[3,2-d]pyrimidin-4-yl)hydrazone]	≤ 2000 nM	< 2000 nM
O=C(O)c1ccc(C=NNc2ncnc3cc(-c4ccccc4Cl)sc23)cc1 [Compound 318, 4-Carboxybenzaldehyde(6-(2-chlorophenyl)thieno[3,2-d]pyrimidin-4-yl)hydrazone]	≤ 2000 nM	< 2000 nM
Cc1c(C(O)C2CCCCC2)sc2c(NN=Cc3cccnc3)ncnc12 (stereo not shown) [Compound 469, 3-Pyridinecarboxaldehyde(6-(1-cyclohexyl-1-hydroxy)methyl-7-methylthieno[3,2-d]pyrimidin-4-yl)hydrazone]	≤ 2000 nM	< 2000 nM
Cc1c(CO)sc2c(NN=Cc3ccc(C(=O)O)cc3)ncnc12 [Compound 477, 4-Carboxybenzaldehyde(6-hydroxymethyl-7-methylthieno[3,2-d]pyrimidin-4-yl)hydrazone]	≤ 2000 nM	< 2000 nM
Cc1c(-c2ccccc2)sc2c(NN=Cc3ccc(C(=O)O)cc3)ncnc12 [Compound 360, 4-Carboxybenzaldehyde(7-methyl-6-phenylthieno[3,2-d]pyrimidin-4-yl)hydrazone]	≤ 2000 nM	< 2000 nM
Cc1c(-c2ccc(C(=O)O)cc2)sc2c(NN=Cc3cccnc3)ncnc12 [Compound 453, 3-Pyridinecarboxaldehyde(6-(4-carboxyphenyl)-7-methylthieno[3,2-d]pyrimidin-4-yl)hydrazone]	≤ 2000 nM	< 2000 nM
Cc1c(-c2cccc(CO)c2)sc2c(NN=Cc3ccc(C(=O)O)cc3)ncnc12 [Compound 441, 4-Carboxybenzaldehyde(6-(3-hydroxymethylphenyl)-7-methylthieno[3,2-d]pyrimidin-4-yl)hydrazone]	≤ 2000 nM	< 2000 nM
COc1ccc(C=NNc2ncnc3c(C)c(C(O)C4CCCCC4)sc23)cc1O (stereo not shown) [Compound 472, 3-Hydroxy-4-methoxybenzaldehyde(6-(1-cyclohexyl-1-hydroxy)methyl-7-methylthieno[3,2-d]pyrimidin-4-yl)hydrazone]	≤ 2000 nM	< 2000 nM
Cc1c(-c2ccc(CO)cc2)sc2c(NN=Cc3ccc(C(=O)O)cc3)ncnc12 [Compound 437, 4-Carboxybenzaldehyde(6-(4-hydroxymethylphenyl)-7-methylthieno[3,2-d]pyrimidin-4-yl)hydrazone]	≤ 2000 nM	< 2000 nM
Cc1csc2c(NN=Cc3c[nH]cn3)ncnc12 [Compound 42, 1H-Imidazole-4-carboxaldehyde(7-methylthieno[3,2-d]pyrimidin-4-yl)hydrazone]	≤ 2000 nM	< 2000 nM
Cc1c(-c2ccccc2Cl)sc2c(NN=Cc3ccc(C(=O)O)cc3)ncnc12 [Compound 390, 4-Carboxybenzaldehyde(6-(2-chlorophenyl)7-methylthieno[3,2-d]pyrimidin-4-yl)hydrazone]	≤ 2000 nM	< 2000 nM
Cc1c(C(=O)O)sc2c(NN=Cc3ccc(C(=O)O)cc3)ncnc12 [Compound 466, 4-Carboxybenzaldehyde(6-carboxy-7-methylthieno[3,2-d]pyrimidin-4-yl)hydrazone]	≤ 2000 nM	< 2000 nM
Cc1c(C(=O)O)sc2c(NN=Cc3cccnc3)ncnc12 [Compound 465, 3-Pyridinecarboxaldehyde(6-carboxy-7-methylthieno[3,2-d]pyrimidin-4-yl)hydrazone]	≤ 2000 nM	< 2000 nM

Now from value to compound:

IC50 [1]	IC50 [2]	Structure (SMILES)
≤ 2000 nM	< 2000 nM	Cc1c(C(Cc2ccccc2)c2ccccc2)sc2c(NN=Cc3cccnc3)ncnc12 (stereo not shown) [Compound 473, 3-Pyridinecarboxaldehyde(6-(1-benzyl-1-phenyl)methyl-7-methylthieno[3,2-d]pyrimidin-4-yl)hydrazone]
≤ 2000 nM	< 2000 nM	Cc1c(/C=C/c2ccccc2)sc2c(NN=Cc3ccc(C(=O)O)cc3)ncnc12 [Compound 448, 4-Carboxybenzaldehyde(7-methyl-6-(trans-2-phenylvinyl)-thieno[3,2-d]pyrimidin-4-yl)hydrazone]
≤ 2000 nM	< 2000 nM	Cc1c(C(O)c2ccccc2)sc2c(NN=Cc3ccc(C(=O)O)cc3)ncnc12 (stereo not shown) [Compound 458, 4-Carboxybenzaldehyde(6-(1-hydroxy-1-phenyl)methyl-7-methylthieno[3,2-d]pyrimidin-4-yl)hydrazone]
≤ 2000 nM	< 2000 nM	COc1ccc(C=NNc2ncnc3c(C)c(CO)sc23)cc1O [Compound 478, 3-Hydroxy-4-methoxybenzaldehyde(6-hydroxymethyl-7-methylthieno[3,2-d]pyrimidin-4-yl)hydrazone]
≤ 2000 nM	< 2000 nM	Cc1c(C(O)c2ccsc2)sc2c(NN=Cc3cccnc3)ncnc12 (stereo not shown) [Compound 461, 3-Pyridinecarboxaldehyde(6-(1-hydroxy-1-[3-thienyl])methyl-7-methylthieno[3,2-d]pyrimidin-4-yl)hydrazone]
≤ 2000 nM	< 2000 nM	Cc1c(-c2ccccc2)sc2c(NN=Cc3cccnc3)ncnc12 [Compound 359, 3-Pyridinecarboxaldehyde(7-methyl-6-phenylthieno[3,2-d]pyrimidin-4-yl)hydrazone]
≤ 2000 nM	< 2000 nM	Cc1c(-c2ccc(C(=O)O)cc2)sc2c(NN=Cc3cccs3)ncnc12 [Compound 455, 2-Thiophenecarboxaldehyde(6-(4-carboxyphenyl)-7-methylthieno[3,2-d]pyrimidin-4-yl)hydrazone]
≤ 2000 nM	< 2000 nM	COc1ccc(C=NNc2ncnc3c(C)c(C(=O)O)sc23)cc1O [Compound 468, 3-Hydroxy-4-methoxybenzaldehyde(6-carboxy-7-methylthieno[3,2-d]pyrimidin-4-yl)hydrazone]
≤ 2000 nM	< 2000 nM	COc1ccc(C=NNc2ncnc3c(C)c(-c4ccsc4)sc23)cc1O [Compound 382, 3-Hydroxy-4-methoxybenzaldehyde(7-methyl-6-(3-thienyl)thieno[3,2-d]pyrimidin-4-yl)hydrazone]
≤ 2000 nM	< 2000 nM	C(=NNc1ncnc2ccsc12)c1cccnc1 [Compound 98, 3-Pyridinecarboxaldehyde(thieno[3,2-d]pyrimidin-4-yl)hydrazone]
≤ 2000 nM	< 2000 nM	COc1ccc(C=NNc2ncnc3c(C)c(-c4ccc(C(=O)O)cc4)sc23)cc1O [Compound 456, 3-Hydroxy-4-methoxybenzaldehyde(6-(4-carboxyphenyl)-7-methylthieno[3,2-d]pyrimidin-4-yl)hydrazone]
≤ 2000 nM	< 2000 nM	COc1ccc(C=NNc2ncnc3c(C)c(-c4ccccc4OC)sc23)cc1O [Compound 435, 3-Hydroxy-4-methoxybenzaldehyde(6-(2-methoxyphenyl)-7-methylthieno[3,2-d]pyrimidin-4-yl)hydrazone]
